Reference: patent EP4417616A1, “LXR ANTAGONISTS” (Ospedale San Raffaele S.r.l., priority 2023, dated 2024)
“Also recorded” adds a separate entry of the source. Values belong to the compound of their own block, whether it stands above or below them.

How the values were obtained:
LXRα = molecular target: T1, LXRα (Homo sapiens, UniProt Q13133); assay: Luciferase-based reporter assay for LXRα transcriptional activity (HEK293, Gal4-LXRα); assay type: cell-based; settings: for antagonism of LXRα activation induced by 22R-HC: 22R-HC 5 or 10 µM, titrating amounts of compound (1-50 µM)
T1 construct: expressed in transfected cells; host or cells: HEK293
T1 sequence (Q13133 1-447): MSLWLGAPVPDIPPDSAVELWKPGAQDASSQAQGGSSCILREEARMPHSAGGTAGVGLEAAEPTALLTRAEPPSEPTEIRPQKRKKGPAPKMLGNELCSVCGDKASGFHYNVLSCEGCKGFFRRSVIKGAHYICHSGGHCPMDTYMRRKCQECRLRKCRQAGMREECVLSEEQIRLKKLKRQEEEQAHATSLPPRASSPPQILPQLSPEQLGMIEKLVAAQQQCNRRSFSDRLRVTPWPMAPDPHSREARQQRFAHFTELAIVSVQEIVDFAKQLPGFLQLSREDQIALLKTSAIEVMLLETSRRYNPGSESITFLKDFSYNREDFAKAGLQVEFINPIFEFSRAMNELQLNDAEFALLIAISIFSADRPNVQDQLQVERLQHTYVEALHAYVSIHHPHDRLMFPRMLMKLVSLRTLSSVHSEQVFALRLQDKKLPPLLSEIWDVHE
Protocol: Reporter assay for nuclear receptor transcriptional activity. Human embryonic Kidney 293 cells (American Type Culture Collection) were cultured in Dulbecco's Modified Eagle's medium containing 10% of fetal bovine serum at 37°C in humidified atmosphere of 5% CO2. HEK293 cells (4×10^4 cells per well) were transiently transfected in 48 well plate with the reporter plasmids pMH100X4-TK-luc (100 ng/300µl), Renilla (22 ng/300µl) together with 100 ng/300µl of pCMX-Gal4-LXRα or pCMX-Gal4-LXRβ plasmids using X-tremeGENE 9 DNA Transfection Reagent (Roche). Six hours after transfection, the cells were treated with the appropriate compound for 24 hours. Luciferase activities were analyzed by luciferase Dual Reporter Assay Systems (Promega) according to the manufacturer's protocol. GAL4-LXRs, and TK-MHC100-luc plasmids were described in^7. […] Six hours after transfection, the cells were treated with the appropriate compound for 40 hours. Luciferase activity was analyzed as described above and protein content spectrophotometrically using Coomassie Plus Protein assay reagent (Thermo Scientific). Quantitative Real-Time-PCR. U937 cell line was differentiated in foam macrophages with phorbol 12-myristate 13-acetate (PMA) 10 ng/ml (Sigma) for 72 hours at 37°C in RPMI 10% FBS. At day 3 T0901317 (10 µM) or different amount of PFM037 (50, 25 and 10 µM) were added for 16 hours. Total RNA was purified by TRIZOL (Invitrogen). Reverse transcription was performed by MLV-reverse transcriptase (Promega). QPCR was performed using SYBR Green Master Mix (Applied Biosystems) and real-time PCR (Viia 7 Real Time PCR System, Applied Biosystems). PCR reactions were done in triplicate.

RMA lymphoma = assay: Treatment of RMA tumor-bearing mice; settings: 300 µg i.v. 5 days/week
Protocol: Analysis of tumor infiltrating cells by flow cytometry. […] Tumors collected 7, 10, 12 or 14 days after injection were cut into small fragments and digested with Liberase TL (66 µg/ml, Roche) and DNAse I (150 µg/ml, Roche) for 25-30 minutes at 37 °C. Digested tissues were filtered by using a 75 µm diameter cell strainer. Single cell suspensions were stained with Live/Dead Violet kit reagents (Molecular Probes) for 30 minutes at 4°C. After washing, the cells were incubated for 5-10 minutes at RT with Fc-blocking solution (Anti-CD16/32, 10 µg/ml mouse Fc Block, BD) and then stained with various antibodies incubated at 4°C for 20 minutes. […] CD209a (5H10), CCR7 (4b12) and F4/80 (BM8) were from eBioscience. Rat IgG, Rat IgG2a, Rat IgG2b, Rat IgM and Hamster isotype control mAbs were used as controls (Biolegends and BD Biosciences). For intracellular staining, cells were incubated with PMA (100 ng/ml) and ionomycin (500 ng/ml) in the presence of 10 µg/ml of Brefeldin for 4 hours. Cells were then fixed using the IC Fixation buffer (eBioscience), permeabilized with 1x Permeabilization buffer (eBiosciences) and stained with anti-IFNy mAb. Samples were run by FACSCanto flow cytometer and analyzed by FlowJo software gating on live cells. FACS sorting was performed by using the FACSAria Fusion (BD)
Tumor challenge experiments. C57BL/6 mice were injected subcutaneously with LLC-Mock (1 ×10^6), LLC-SULT2B1b (1 ×10^6), RMA (2 ×10^5), or B16F1-OVA (2 ×10^5) tumor cells. […] Tumor size was evaluated by measuring perpendicular diameters by a caliper every 2-3 days. Data are reported as the average tumor volume ± SD. In selected experiments tumors were injected in Ccr2^-/-mice.
Treatment of tumor-bearing mice with LXR antagonists alone or with immunotherapy. Tumor-bearing mice were treated with 25-HC-3S or PFM037 6-7 days after tumor challenge. After 6-7 days, mice were randomly assigned to either treatment or vehicle groups. Mice were injected with 300 µg of either compound given i.v. for 5 days/week. […] B16F1-OVA-bearing mice were treated with 400 µg of PFM037 for 5 days/week. For controls of mAb experiments, mice were injected with 250 µg of rat IgG2a isotype control antibody. […] Tumors were collected and measured 14 days after tumor challenge.

LLC tumor cells = assay: In vitro growth of LLC tumor cells; assay type: cell-based, mouse; settings: compared with vehicle
[1] = tested on: Lewis Lung Carcinoma (LLC); assay: Treatment of LLC tumor-bearing mice; assay type: in vivo
Excerpt: Tumor challenge experiments.

LXRα-LBD = molecular target: T2, LXRα-LBD (Homo sapiens, UniProt Q13133); assay: Mammalian two-hybrid assay, RAP250-Del4 with pVP16-LXRα-LBD; assay type: cell-based; settings: ligand alone, 10 µM; Huh7 cells
T2 construct: expressed in transfected cells; host or cells: Huh7 (printed 'Hhu7') human liver cell line
T2 sequence (Q13133 209-447 limits assumed): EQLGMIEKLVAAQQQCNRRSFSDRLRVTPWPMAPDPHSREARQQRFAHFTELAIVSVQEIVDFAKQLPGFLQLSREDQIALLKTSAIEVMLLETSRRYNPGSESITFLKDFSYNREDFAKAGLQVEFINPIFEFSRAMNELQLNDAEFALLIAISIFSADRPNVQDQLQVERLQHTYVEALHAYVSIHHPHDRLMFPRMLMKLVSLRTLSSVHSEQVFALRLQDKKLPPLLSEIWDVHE

LXRβ-LBD = molecular target: T3, LXRβ-LBD (Homo sapiens, UniProt P55055); assay: Mammalian two-hybrid assay, RAP250-Del4 with pVP16-LXRβ-LBD; assay type: cell-based; settings: ligand alone, 10 µM; Huh7 cells
T3 construct: expressed in transfected cells; host or cells: Huh7 (printed 'Hhu7') human liver cell line
T3 sequence (P55055 222-460 limits assumed): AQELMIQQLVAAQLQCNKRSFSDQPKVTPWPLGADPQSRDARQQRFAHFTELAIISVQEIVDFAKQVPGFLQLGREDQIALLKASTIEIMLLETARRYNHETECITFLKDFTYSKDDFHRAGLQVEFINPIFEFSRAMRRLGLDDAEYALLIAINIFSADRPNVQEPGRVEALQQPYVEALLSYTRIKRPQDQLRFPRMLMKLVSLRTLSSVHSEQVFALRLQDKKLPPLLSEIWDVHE

[2] = LLC-bearing mice, 300 µg i.v. 5 days/week from day 6-7, vs vehicle

Compound: CC(C)CC[C@H](O)[C@@H](C)[C@H]1CC[C@H]2[C@@H]3CC=C4C[C@@H](O)CC[C@]4(C)[C@H]3CC[C@]12C [22S-HC, 22S-hydroxycholesterol]
antagonism of LXRα activation induced by 22R-HC (LXRα): does not antagonize; also recorded: did not antagonize

Compound: C[C@H](CCCC(C)(C)O)[C@H]1CC[C@H]2[C@@H]3CC=C4C[C@@H](OS(=O)(=O)O)CC[C@]4(C)[C@H]3CC[C@]12C [25-HC-3S, 25-Hydroxycholesterol-3-sulfate, reference compound]
numbers of tumor-infiltrating mono-DCs (RMA lymphoma): Higher
tumor growth (RMA lymphoma; tumor weight at sacrifice): tumor growth control
IC50 (LXRα): 12.7 µM
antagonism of LXRα activation induced by 22R-HC (LXRα): antagonized the LXRα activity in a dose-dependent manner
in vitro growth of LLC tumor cells (LLC tumor cells): grew in a similar manner
absolute numbers of tumor-infiltrating mono-DCs [1, 2]: Higher
tumor growth [1, 2]: delay of tumor growth

Compound: C[C@@H]([C@H]1CC[C@H]2[C@@H]3CC=C4C[C@@H](O)CC[C@]4(C)[C@H]3CC[C@]12C)[C@@H](O)Cc1ccccc1 [PFM046, (22S)-23-Phenyl-24-norchol-5-en-3β,22-diol]
tumor growth ([1]; established LLC tumors, 300 µg/mouse every other day, Fig. 24B): able to control LLC tumor growth; also recorded: controls tumor growth

luciferase activity (LXRα-LBD): induced luciferase activity
luciferase activity (LXRβ-LBD): induced luciferase activity
Compound: CC(C)CC[C@@H](O)[C@@H](C)[C@H]1CC[C@H]2[C@@H]3CC=C4C[C@@H](O)CC[C@]4(C)[C@H]3CC[C@]12C [22R-HC]
